According to patent publication US20180066327A1, “Methods to Accelerate Wound Healing in Diabetic Subjects” (Joslin Diabetes Center, Inc., priority 2015, published 2018):
Each block holds one molecule with its values, some of them ahead of it.

Key:
Format in all cases: cell-based, human
Medalist fibroblasts [1] = assay: VEGF protein secreted to the medium (ELISA)
Source text: Skin were obtained from 26 Medalists with various complications and from 7 age-matched non-diabetic controls during post-mortem period. Primary fibroblast cultures were derived from human skin samples, sustained in DMEM (10-027, Cellgro Inc.) supplemented with 10% heat inactivated fetal bovine serum, over a period of 4 weeks, in a 6-well plate, with media supplementation every other day. Subsequently, as fibroblasts emerged from the primary explant, a brief trypsinization (0.25% Trypsin) was used to separate and further expand the cells in a 10 cm^2 plate. In all experiments fibroblasts were used between passages 2-5.
(§1) Fibroblasts with passage≦5 were grown and expanded in 10 cm plate with DMEM supplemented with 10% FBS. Cells were stimulated with the conditions and compounds as indicated after overnight starvation in DMEM with 0.1% BSA without FBS. Cells were lysed and protein amounts were measured with BCA kit (Bio-Rad, Hercules, Calif.). Protein lysates (20-30 μg) were separated by SDS-PAGE, transferred, blocked and detected as we described before (Park et al., Mol Cell Biol. 2013 August; 33(16):3227-41). The signal intensity was quantified using ImageJ software (SynGene, Frederick, Md.). For immune precipitation, tissue lysates were incubated with the appropriate antibodies followed by the addition of protein A/G Sepharose beads (Santa Cruz Biotechnology, Inc., Santa Cruz, Calif.). The precipitated proteins were subjected to SDS-PAGE followed by immunoblotting with the appropriate antibodies as described before (Park et al., Mol Cell Biol. 2013 August; 33(16):3227-41).
The transfection of siRNA was performed using the Ambion Silencer Select Validated siRNA kit for primary cells (Ambion by Life Technology, Carlsband, Calif.), in 60-70% confluent fibroblast. For evaluating insulin's effect on VEGF production, cells were washed twice with PBS, and starved overnight with DMEM containing 1% BSA. Insulin (100 nM) was added to each for additional 16 h. After incubation, media were collected for VEGF measurement by ELISA and the cell lysate were collected for measuring protein concentration.
Protein levels of VEGF in the medium were measured using Quantikine R&D System kit (Minneapolis, Minn.). This kit determines mainly VEGF165. Glycated hemoglobin (HbA1c) was determined by HPLC (Tosoh G7 and 2.2, Tokyo, Japan). Serum creatinine was determined by spectrophotometry. Urine albumin and creatinine were determined by turbidimetric methods. Serum C-peptide was determined by RIA (Beckman Coulter, Inc, Fullerton, Calif.).

Medalist fibroblasts [2] = assay: VEGF protein secreted to the medium (ELISA); conditions: fibroblasts from Medalists compared to controls; 10 ng/ml TGF for 24 hours
control fibroblasts [3] = assay: VEGF protein secreted to the medium (ELISA)
Medalist fibroblasts [4] = assay: VEGF mRNA by real-time PCR; conditions: fibroblasts from Medalists, 100 nM insulin
Description: (§2) Real-time PCR was performed to evaluate mRNA expressions of VEGF, PDGF-B, Fibronectin, and PKCδ in cultured fibroblast and mice granulation tissue as we described before (Geraldes et al., Nat Med. 2009 November; 15(11):1298-306). PCR primers and probes are detailed in Table A. Human 36B4 or 18S ribosomal RNA expressions as indicated were used for normalization.

control fibroblasts [5] = assay: VEGF mRNA by real-time PCR; conditions: fibroblasts from controls, 100 nM insulin
Description: as §2

Medalist fibroblasts [6] = assay: Scratch wound migration assay; conditions: 10 ng/ml PDGF-BB or 100 nM insulin for 12 h
Description: (§3) Scratch wound migration assay—100% Confluent starved Medalist or control fibroblasts wounded, followed by incubation with 10 ng/ml PDGF-BB or 100 nM insulin for 12 hours. Phase contrast images of wounded areas were taken at time 0, 4, 6, 8 and 12 hours after stimulation, and migration was determined as described before (Ito et al., Am J Physiol Lung Cell Mol Physiol. 2014 Jul. 1; 307(1):L94-105).

control fibroblasts [7] = assay: Scratch wound migration assay; conditions: 10 ng/ml PDGF-BB or 100 nM insulin for 12 h
Description: as §3

Medalist fibroblasts [8] = assay: p-AKT (Ser473) immunoblot; conditions: for p-AKT increase compared to untreated cells: Medalist fibroblasts, 100 nM insulin or 10 ng/ml PDGF-BB for 10 minutes; for p-AKT increase: 100 nM insulin 10 minutes
Description: as §1

control fibroblasts [9] = assay: p-AKT (Ser473) immunoblot; conditions: for p-AKT increase compared to untreated cells: 100 nM insulin or 10 ng/ml PDGF-BB for 10 minutes
Description: as §1

Medalist fibroblasts [10] = assay: IRS1 tyrosine phosphorylation immunoblot; conditions: 100 nM insulin
Description: as §1

control fibroblasts [11] = assay: IRS1 tyrosine phosphorylation immunoblot; conditions: fibroblasts of controls, 100 nM insulin
Description: as §1

Medalist fibroblasts [12] = assay: p-Tyr of insulin receptor beta subunit immunoblot; conditions: 100 nM insulin
Description: as §1

control fibroblasts [13] = assay: p-Tyr of insulin receptor beta subunit immunoblot; conditions: controls, 100 nM insulin
Description: as §1

[14] = fibroblasts of Medalists with CVD
[15] = fibroblasts of Medalists without CVD

Molecule: CN(C)CCCn1cc(C2=C(c3c[nH]c4ccccc34)C(=O)NC2=O)c2ccccc21 [GFX, 2[1-(3-dimethylaminopropyl)-1H-indol-3-yl]-3-(1H-indol-3-yl)-maleimide]
fold increase in VEGF levels above basal (Medalist fibroblasts [1]; Medalist fibroblasts, inhibitor + 100 nM insulin (10 mM GFX or 3 uM rottlerin)): 4.74±0.94 fold
fold increase in VEGF levels above basal (Medalist fibroblasts [1]; Medalist fibroblasts, inhibitor alone, no insulin (10 mM GFX or 3 uM rottlerin)): 2.55±0.43 fold

Molecule: COc1cccc(-c2cc(=O)c3ccccc3o2)c1N [PD98059]
insulin-stimulated VEGF production (Medalist fibroblasts [1]; Medalist fibroblasts, 100 nM insulin in presence of 100 nM wortmanin or 10 μM PD98059): but not PD98059, significantly inhibited

Molecule: CN(C)C[C@@H]1CCn2cc(c3ccccc32)C2=C(C(=O)NC2=O)c2cn(c3ccccc23)CCO1 [RBX, Ruboxistaurin]
insulin stimulated VEGF secretion (Medalist fibroblasts [1]; Medalist fibroblasts, 100 nM insulin with 100 nM RBX): failed to increase

Molecule: CC(=O)c1c(O)c(C)c(O)c(Cc2c(O)c3c(c(C(=O)/C=C/c4ccccc4)c2O)OC(C)(C)C=C3)c1O [rottlerin, Rottlerin]
fold increase in VEGF levels above basal (Medalist fibroblasts [1]; Medalist fibroblasts, inhibitor + 100 nM insulin (GFX or 3 uM rottlerin)): 5.25±0.56 fold
fold increase in VEGF levels above basal (Medalist fibroblasts [1]; Medalist fibroblasts, inhibitor alone, no insulin (GFX or 3 uM rottlerin)): 3.74±0.49 fold

Molecule: TGF-β
VEGF induced by TGF-β (Medalist fibroblasts [2]): blunted

p-Tyr of the insulin receptor beta subunit, increase (Medalist fibroblasts [12]; Medalists with CVD): 4.7 fold
p-Tyr of the insulin receptor beta subunit, increase (Medalist fibroblasts [12]; Medalists without CVD): 4.9 fold
p-Tyr of the insulin receptor beta subunit, increase (control fibroblasts [13]): 5.2 fold
Molecule: insulin
VEGF secretion, fold increase (Medalist fibroblasts [1]; Ad-GFP infected Medalist fibroblasts, with 100 nM insulin 16 hours): 1.51±0.18 fold
VEGF secretion, fold increase above basal (Medalist fibroblasts [1]; Medalist fibroblasts, insulin alone, siRNA experiment): 1.28±0.10 fold
fold increase in VEGF levels above basal (Medalist fibroblasts [1]; Medalist fibroblasts, 100 nM insulin alone, GFX experiment): 1.59±0.10 fold
fold increase in VEGF levels above basal (Medalist fibroblasts [1]; Medalist fibroblasts, 100 nM insulin alone, rottlerin experiment): 1.50±0.31 fold
VEGF protein levels after insulin stimulation (Medalist fibroblasts [1]; Medalists with CVD (basal 75.5±13.7)): 106.0±12.0 pg/mg protein
VEGF protein levels after insulin stimulation (Medalist fibroblasts [1]; Medalists without CVD (basal 57.5±8.5)): 99.1±8.4 pg/mg protein
stimulation of VEGF protein (Medalist fibroblasts [1]; fibroblasts from Medalists, 100 nM insulin): failed to significantly stimulate
VEGF production, fold (control fibroblasts [3]; Ad-GFP infected control fibroblasts, with 100 nM insulin 16 hours): 2.89±0.67 fold
increase in VEGF protein levels (control fibroblasts [3]; fibroblasts from controls, 100 nM insulin): 66%
stimulation of VEGF mRNA production (Medalist fibroblasts [4]): failed to significantly stimulate
increase in VEGF mRNA (control fibroblasts [5]): 2.4 fold
cell migration (Medalist fibroblasts [6]): failed to significantly increase
cell migration (control fibroblasts [7]): 1.7 fold
p-AKT increase compared to untreated cells (Medalist fibroblasts [8]): 2 fold
p-AKT increase (Medalist fibroblasts [8]; [14]): 1.8 fold
p-AKT increase (Medalist fibroblasts [8]; [15]): 2.4 fold
p-AKT increase (control fibroblasts [9]; 100 nM insulin 10 minutes (CVD comparison experiment)): 4.0 fold
p-AKT increase compared to untreated cells (control fibroblasts [9]): 3.6 fold
IRS1 tyrosine phosphorylation at site 649 (p-Tyr649), increase (Medalist fibroblasts [10]; [14]): 34%
IRS1 tyrosine phosphorylation at site 911 (p-Tyr911), increase (Medalist fibroblasts [10]; [14]): 26%
IRS1 tyrosine phosphorylation at site 649 (p-Tyr649), increase (Medalist fibroblasts [10]; [15]): 63%
IRS1 tyrosine phosphorylation at site 911 (p-Tyr911), increase (Medalist fibroblasts [10]; [15]): 40%
IRS1 tyrosine phosphorylation at site 649 (p-Tyr649), increase (control fibroblasts [11]): 53%
IRS1 tyrosine phosphorylation at site 911 (p-Tyr911), increase (control fibroblasts [11]): 52%

B1: PDGF-BB: platelet-derived growth factor, 10 ng/ml stimulus (protein, UniProt P01127 82-190, looked up)
Platelet-derived growth …: SLGSLTIAEPAMIAECKTRTEVFEISRRLIDRTNANFLVWPPCVEVQRCSGCCNNRNVQCRPTQVQLRPVQVRKIEIVRKKPIFKKATVTLEDHLACKCETVAAARPVT
modifications: homodimer BB
notes: platelet-derived growth factor, 10 ng/ml stimulus
cell migration (Medalist fibroblasts [6]): increased cell migration significantly
cell migration (control fibroblasts [7]): increased cell migration significantly
p-AKT increase compared to untreated cells (Medalist fibroblasts [8]): 7 fold
p-AKT increase compared to untreated cells (control fibroblasts [9]): 7 fold
